“Also recorded” adds a separate entry of the source. Read-outs that look alike come from different tables or passages of the source. Where a SMILES comes first, the peptide text is derived from it. The star is where a group is joined. NHC(CH2O-Palmitoyl)3 = CCCCCCCCCCCCCCCC(=O)OCC(COC(=O)CCCCCCCCCCCCCCC)(COC(=O)CCCCCCCCCCCCCCC)N*; X3 = CCCCCCCCCCCCCC(=O)OCC(CO)(CO)N*; X2 = CCCCCCCCCCCC(=O)OCC(CO)(CO)N*
What was measured:
CHO cells [1] = test: Transfection of pSVLCAT, CAT assay, CHO; type: cell-based, Chinese Hamster
Procedure: Protocol was the same for Verafectin and Transfectam (see above) with the exception that 0.5 μg of pSVLCAT DNA was used /60 mm dish.
Lipofectamine protocol was according to manufacturer's instructions. 0.5 μg pSVLCAT/60 mm dish. CHO cells seeded 1×10^5 /60 mm dish and adhered overnight in DME/Hams medium with 10% FCS.
Transfectam 5 or 10 μl 1mg/400 μl stock solution.
Lipofectamine 5 or 10 μl 2 mg/ml (mixed formulation 3:1 with DOPE). VerafectinA3 (K3ATP3) and VerafectinG2 (K3G[Glycine]TP2) each at 5, 10 and 15 μl of 2 mM (2.8 and 2.3 mg/ml respectively) stock.
The serum free incubation period in the presence of test agents and DNA was 6 hours, then 1 ml DME/Hams+10% FCS was added. At 24 hrs the medium was changed to 2 ml of fresh DME/Hams+10% FCS until harvest at 48 hrs.
(§1) Cell lines Cos 1 or CHO were transfected with 0.5 μg of pSVLCAT or 2 μg of pPGKlacZ plasmid using a range of concentrations of each transfection compound. The optimal concentration of compound, that is the concentration giving the highest level of CAT at 48 hours or the greatest percentage of lac z (β-galactosidase) staining cells at 24 hours was used to collate data for Table 1. As all compounds were not tested in a single experiment, absolute figures indicating transfection were not used. Rather, symbols are used to indicate the transfection efficiency relative to Lipofectamine (BRL), which was included as a control in all experiments. Table 1 thus indicates the relative efficiencies of a number of compounds in mediating the transfection of at least one cell type.
(§2) All test lipopeptide reagents were originally dissolved at 10 mM in 75% DMSO, and subsequently diluted with water to make a 2 mM stock stored at 4° C. Volumes of 2 mM stock lipopeptide ranging from 2 μl to 15 μl were diluted in 500 μl of DDME. 1 μg of plasmid pSVLCAT was separately diluted in 500 μl of DDME. Solutions were combined for 10-20 min at room temperature before adding to 500 μl of DDME in 60 mm dishes of subconfluent CHO cells (2×10^5 day-1) or Cos 1 cells (5×10^5 day-1); washed free of serum with DDME.
(§3) Cells were incubated for 6 hrs under standard conditions of 37° C. and 5% CO2 for 6 hours. 1.5 ml of DME/Hams+10% FCS (CHO) or DME+10% FCS (Cos 1) was added to the cells for overnight incubation. Fresh DME/Hams+10% FCS or DME+10% FCS was used to replace the medium for a further 24 hours prior to harvest. Cell lysates were prepared and assayed for CAT activity as described above. For Cos 1 cells, culture supernatants were assayed for CAT activity.
a. Using the standard transfection procedure described above, and 1 μg plasmid pSVLCAT, these formulations were tested on CHO cells at a single concentration equivalent to 10 μl of Verafectin A2 (2 mM) per sample and compared to unformulated compound and Lipofectamine in the same cell type. CAT production was assayed 48 hours after transfection.

[2] = Electron microscopy of formulated and unformulated compounds; type: physicochemical; settings: negatively stained
Procedure: Solutions of formulated and unformulated compounds were analysed for potential membrane-like structure. In separate experiments the following samples were analysed:
a: Negatively stained samples of formulated compounds K3ATP2:DOPE, DOPE and the unformulated compounds K3C7ATL3 and Lipofectamine.
b: Rotary shadowed samples of K3C7ATL3 and Lipofectamine mixed with two ratios of nucleotide (plasmid).
Stock samples of liposomes at 2 mM, were diluted 1 in 10 with filtered distilled water, and mixed 1:1 with filtered negative stain (Ammonium Molybdate 2%, pH 6.5) and spread onto carbon-formvar coated copper/rhodium 200 mesh electron microscope grids, and examined in a Jeol JEM 100CX electron microscope at 60 kV at magnifications of between 33 k and 100 k.
Ratios of 0.69, and 0.25, of liposome:1 mole DNA nucleotides were diluted in water and mixed for 10 min at room temperature, spread onto carbon-formvar coated grids and rotary metal-shadowed with platinum-palladium (60:40) evaporated at an angle of 7° and examined in the electron microscope at 60 kV at magnifications between 26 k and 66 k.

Cos 1 cells [3] = test: β-gal microtitre plate transfection assay, Cos 1; type: cell-based, African Green Monkey
Source text: (§4) For experiment "c", a plasmid pPGKlaczNLS encoding β-galactosidase under the control of the mouse PGK promoter (kind gift from G.Hannan) or pSVGAL which utilises the SV40 early promoter (Sleigh, M. J. and Lockett, T. J. (1985). EMBO J. 4:3831-3837),was transfected. This experiment and assay were modified from Feigner et al J. Biol Chem. 269(4) 2550-2561 1994. This protocol allows the simultaneous assessment of 72 different combinations and concentrations of DNA and test agent in a microtitre tray. […] Cytotoxicity was assessed using alamar blue, and a sample graph is shown for experiment a.
Compounds were tested for their ability to transfect either the CAT or β-gal gene carried on plasmids, and assayed as described above.
(§5) The ratio of [lipid]/[DNA] at which that maximum was achieved is shown. Experiments shown were carried out in Cos 1 cells, as described above. MTS OD is a measure of relative viabilility of the cells exposed to the different agents, a higher value indicates greater cell viability. * These points were taken from a separate experiment and some slight variation between absolute numbers should be expected between experiments.
(§6) Each of these compounds was tested for transfection ability and cytotoxicity on standard cell lines using standard conditions as described above.
(§7) The ratio of [lipid]/[DNA] at which that maximum was achieved is shown in brackets for the two different cell types in the following order; (Cos 1) (CHO). Experiments shown were carried out in Cos 1 cells, as described above. Viability was measured with the dye alamar blue . # Denotes compounds tested in a separate experiment. * Viability in this experiment was determined with MTS. OD is a measure of relative viability of the cells exposed to the different agents, and as with alamar blue, a higher value indicates greater cell viability.

CHO cells [4] = test: β-gal microtitre plate transfection assay, CHO; type: cell-based, Chinese Hamster; settings: Table 3, CHO; for β-gal (CHO): highest reading of 72 conditions
Source text: as §4, §6, §7

Cos 1 cells [5] = type: cell-based, African Green Monkey
Source text: (§8) Relative levels of cytotoxicity caused by the different agents were compared during the experiment using the dye "Alamar Blue" (Alamar, Sacramento Calif.).
as §4, §5, §7

CHO cells [6] = type: cell-based, Chinese Hamster
Procedure: (LEGEND--FIGS. 7, 8 and 9; none; no agent used with plasmid DNA, rb/blank; reagent blank, number following description of compound indicates no. μl of 2 mM stock (diluted with water). 7b: 100% cell survival was taken from dishes which were "mock transfected" with no DNA or transfection agent. 0% viability was assayed in the absence of cells. Viability was assessed using the dye alamar blue.)
as §8, §7

Cos 1 cells [7] = test: Transfection of pSVLCAT, CAT assay, Cos 1; type: cell-based, African Green Monkey
Procedure: To test the transfection properties of the lead compound K3ATP3 (VerafectinA3), whole uncut plasmid carrying the gene encoding CAT (chloramphenicol acetyl transferase) under the control of the SV40 late promoter, pSVLCAT (Cameron, F. H. and Jennings, P. A. (1989) PNAS 86, 9139-9143) was mixed with the test agent and put on Cos 1 cells under various conditions. After 48 hours of culture the level of secreted CAT was assayed from the culture medium.
Solution I: 1 μg Plasmid DNA in 500 μl Dulbeccos Modified Eagles Medium (DME)
Solution II: 0-20 μl VerafectinA3 (2.5 mg/ml 25% DMSO) in 500 μl DME, Vortex
Combine solution I and II, vortex briefly and incubate at room temperature for 10 min.
Add mix to washed cells in 60 mm tissue culture dishes (seeded 0.5×10^6 /dish previous day) for 6 hrs at 37° C., 5% C02. Add 2 ml DME+10% FCS for remainder of 48 hrs. Assay CAT levels in tissue culture medium (Sleigh, M. J. (1986) Anal. Biochem. 156.251-256).
a--Compare VerafectinA3 dissolved in DMSO or ethanol.
b--Compare VerafectinA3 on cells 6 hrs to overnight. VerafectinA3 at 10 mg/ml in 100% solvent was diluted to 2.5 mg/ml with water.
Transfection was carried out as for experiment 1. VerafectinA3 was left in contact with the cells for varying times.
Protocol was the same for the Verafectins as described above. Lipofectamine protocol was according to manufacturers instructions. Cos 1 cells were seeded at 5×10^5 /60 mm dish and adhered overnight in DME with 10% FCS.
Solution A: 0.5 μg pSVLCAT/60 mm dish.
Solution B: Lipofectamine 10 and 15 μl 2 mg/ml (mixed formulation 3:1 with DOPE).
OR; VerafectinA3 and VerafectinG2 20 μl 2 mM (2.8 and 2.3 mg/ml respectively) stock.
OR; VerafectinG2 was also tested with an equimolar amount of DOPE. VerafectinG2 and DOPE were mixed in DDME and vortexed for 30 seconds before use. Solutions A and B were combined before overlaying on washed cells.
The serum free incubation period in the presence of test agents and DNA was 6 hrs, then 1 ml DME+10% FCS was added. At 24 hours medium was changed to 2 ml fresh DME+10% FCS until harvest at 48 hrs.
as §1, §2, §3
For transfection of pSVLCAT and subsequent assay of CAT enzyme, experiments "a" and "b" were carried out as described above.

Cos 1 cells [8] = type: cell-based, African Green Monkey; remark: listed apart in the source
Procedure: Relative levels of cytotoxicity were also assayed in subsequent experiments using the dye MTS, marketed as Cell titre 96 Aqueous (Promega).
as §5, §7

[9] = Table 2, Cos 1, * separate experiment
[10] = Table 3, Cos 1, highest reading of 72 conditions

Compound | ratio [lipid]/[DNA] at which maximum was achieved (Cos 1 cells [3]; Table 2, Cos 1) | units β-gal (Cos 1 cells [3]; [9]) | ratio [lipid]/[DNA] at which maximum was achieved (Cos 1 cells [3]; Table 3, Cos 1) | β-gal (Cos 1) (Cos 1 cells [3]; [10]) | ratio [lipid]/[DNA] at which maximum was achieved (CHO cells [4]) | β-gal (CHO) (CHO cells [4]) | Viability (Cos 1) (Cos 1 cells [5]) | Viability (CHO) (CHO cells [6]) | other results
CCCCCCCC/C=C\CCCCCCCC(=O)OC[C@H](COP(=O)(O)OCCN)OC(=O)CCCCCCC/C=C\CCCCCCCC [DOPE, Dioleoyl phosphatidyl ethanolamine, reference compound] |  |  |  |  |  |  |  |  | transfection by DOPE alone (CHO cells [1]; CHO, unformulated or "formulated"): gave no transfection; liposome structure (TEM) [2]: does not form a true liposome; also recorded: did not under the same conditions
CCCCCCCCCCCC(=O)OCC(CO)(CO)NC(=O)[C@H](C)NC(=O)[C@H](CCCCN)NC(=O)[C@H](CCCCN)NC(=O)[C@@H](N)CCCCN [K3ATL1] (H-KKKA-X2) | 0.35 | 1.09 × 10^-5 units | .35 | 1.09 × 10^-5 | 2.77 | 2.99 × 10^-6 | 0.104 | 0.072 | 
CCCCCCCCCCCCCC(=O)OCC(CO)(CO)NC(=O)[C@H](C)NC(=O)[C@H](CCCCN)NC(=O)[C@H](CCCCN)NC(=O)[C@@H](N)CCCCN [K3ATM1] (H-KKKA-X3) | 0.69 | 5.85 × 10^-6 units | .69 | 5.85 × 10^-6 | .69 | 5.18 × 10^-6 | 0.102 | 0.07 | 
CCCCCCCCCCCCCCCC(=O)OCC(COC(=O)CCCCCCCCCCCCCCC)(COC(=O)CCCCCCCCCCCCCCC)NC(=O)[C@H](C)NC(=O)[C@H](CCCCN)NC(=O)[C@H](CCCCN)NC(=O)[C@@H](N)CCCCN [K3ATP3, trilysine alanine tris tripalmitate] (H-KKKA-{NHC(CH2O-Palmitoyl)3}) | 0.69 |  |  | 3.52 × 10^-5 |  |  | 0.077 |  | amount giving peak CAT level (Cos 1 cells [7]; Experiment 1, 2.5 mg/ml stock, 10 μl (25 μg)): 10 µL; CAT levels (Cos 1 cells [7]; Experiment 1, 5 μl (12.5 μg) and above, 48 hours): Significant CAT levels; reduction of CAT levels, overnight compared to 6 hour incubation (Cos 1 cells [7]; Experiment 2): approximately 50%; CAT levels (Cos 1 cells [7]; Experiment 2, 10 μl (25 μg) and above): Significant levels of CAT; transfection level relative to Lipofectamine (Cos 1 cells [7]; Experiment 4, Cos 1, 48 hours): approximately 60%; Transfection (CAT) (Cos 1 cells [7]; Table 1, Cos 1, optimised level of agent): +++(+); CAT activity (mean) (CHO cells [1]; "x" peptide experiment a, CHO, 25 μl lysate, 20 min assay at 37° C., optimal level): 6237 cpm; mean level of CAT activity (CHO cells [1]; "x" peptide experiment c, CHO, 2 hours incubation of 20 μl lysate): 13467; CAT levels relative to Lipofectamine (CHO cells [1]; Experiment 3, CHO, 5 μl): ~18%; CAT levels relative to Transfectam (CHO cells [1]; Experiment 3, CHO, 5 μl): approximately 54%; CAT activity (mean) (CHO cells [1]; R1-R4 experiment e, CHO): 8325 cpm; Transfection (CAT) (CHO cells [1]; Table 1, CHO, optimised level of agent): +++; units β-gal (Cos 1 cells [3]; Table 2, Cos 1, highest reading of 72 conditions): 2.73 × 10^-4 units; β-gal (Cos 1) (Cos 1 cells [3]; Table 3, Cos 1, # tested in a separate experiment): 2.73 × 10^-4; MTS OD490-655 (Cos 1 cells [8]): 1.244; Viability (Cos 1) (Cos 1 cells [8]): 1.24
